Results from patent US11091876B2, “Moisture resistant biodegradable composition” (AUTOM RIVER INC., priority 2015, dated 2021).

Assays:
mosquitoes = experiment: Mosquito mortality with insecticide-sprayed water-filled containers in a closed area; format: in vivo; details: containers double sprayed, after about 4 weeks
Procedure: The biodegradable containers also successfully functioned as a mosquito trap. For example, containers were double sprayed with lambda-cyalothrin, filled with water and placed in a closed area with a known number of mosquitoes. After about 4 weeks, mosquito mortality was measured by counting the number of live mosquitoes compared to the dead mosquitoes. 100% mosquito mortality was achieved.

plants = details: cited from earlier work

| SMILES | mosquito mortality (mosquitoes) | incompatibility on cultivated plants (plants) | phytotoxicity to most plants (plants; when used as directed) |
| --- | --- | --- | --- |
| CC1(C)[C@H](C(=O)O[C@H](C#N)c2cccc(Oc3ccccc3)c2)[C@@H]1/C=C(\Cl)C(F)(F)F [lambda-cyalothrin] | 100% | – | – |
| CC1(C)C(C=C(Cl)Cl)C1C(=O)OCc1cccc(Oc2ccccc2)c1 (stereo not drawn) [permethrin] | – | No incompatibility has been observed | not phytotoxic |
